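The compound was tested at five concentrations on cells cultured in 96-well plates, with a 48-hour exposure period. GI50 is the concentration that inhibits growth by half. TGI: concentration producing complete growth inhibition.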
Key:
Assay in all cases: inhibition of tumour cell growth, NCI panel, 48 h; in the data active = GI50 below about 0.43 µM; inactive = the rest
[1] = tested on: HCT-116 colon
[2] = tested on: SR leukemia
[3] = tested on: DU-145 prostate
[4] = tested on: KM12 colon
[5] = tested on: HCC-2998 colon
[6] = tested on: MDA-MB-231 breast
[7] = tested on: OVCAR-5 ovarian
[8] = tested on: SN12C renal
[9] = tested on: HOP-62 NSCLC
[10] = tested on: HOP-92 NSCLC
[11] = tested on: NCI-H226 lung
[12] = tested on: NCI-H23 lung
[13] = tested on: SK-OV-3 ovarian
[14] = tested on: SNB-75 CNS
[15] = tested on: SW-620 colon
[16] = tested on: SK-MEL-2 melanoma
[17] = tested on: OVCAR-4 ovarian
[18] = tested on: NCI/ADR-RES ovarian
[19] = tested on: T-47D breast
[20] = tested on: ACHN renal
[21] = tested on: MCF7 breast
[22] = tested on: COLO 205 colon
[23] = tested on: M14 melanoma
[24] = tested on: UACC-62 melanoma
[25] = tested on: TK-10 renal
[26] = tested on: CAKI-1 renal
[27] = tested on: UACC-257 melanoma
[28] = tested on: SK-MEL-28 melanoma
[29] = tested on: UO-31 renal
[30] = tested on: SF-539 CNS
[31] = tested on: RPMI-8226 leukemia
[32] = tested on: HS 578T breast
[33] = tested on: RXF 393 renal
[34] = tested on: EKVX NSCLC
[35] = tested on: 786-0 renal
[36] = tested on: SNB-19 CNS
[37] = tested on: HCT-15 colon
[38] = tested on: SF-268 CNS
[39] = tested on: NCI-H522 lung
[40] = tested on: LOX IMVI melanoma
[41] = tested on: SF-295 CNS
[42] = tested on: IGROV1 ovarian
[43] = tested on: PC-3 prostate
[44] = tested on: A549 NSCLC
[45] = tested on: NCI-H460 lung
[46] = tested on: U251 CNS
[47] = tested on: MDA-MB-435
[48] = tested on: SK-MEL-5 melanoma
[49] = tested on: OVCAR-8 ovarian
[50] = tested on: K-562 leukemia

COc1cc2cnc3c(c2c(OC)c1OC)Cc1cc2c(cc1-3)OCO2
1.76 µM: TGI [26]
12 µM: TGI [30]
active: GI50 [1] 0.0694 µM | GI50 [2] 0.0491 µM | GI50 [4] 0.255 µM | GI50 [9] 0.234 µM | GI50 [20] 0.243 µM | GI50 [24] 0.204 µM | GI50 [26] 0.256 µM | GI50 [37] 0.102 µM | GI50 [39] 0.408 µM | GI50 [40] 0.0789 µM | GI50 [46] 0.31 µM | GI50 [47] 0.207 µM | GI50 [50] 0.156 µM
0.874 µM: TGI [4]
> 32.3 µM: TGI [37]
> 55.1 µM: TGI [23]
3.46 µM: TGI [39]
> 21.8 µM: TGI [46]
47.9 µM: TGI [33]
> 32.8 µM: TGI [41]
> 87.9 µM: TGI [50]
11.2 µM: TGI [24]
> 29.1 µM: TGI [20]
> 24.8 µM: TGI [21]
> 50.7 µM: TGI [32]
inactive: GI50 [3] > 36.1 µM | GI50 [5] > 100 µM | GI50 [6] 0.71 µM | GI50 [7] > 40.8 µM | GI50 [8] 0.602 µM | GI50 [11] 88.3 µM | GI50 [12] 2.3 µM | GI50 [13] 69.3 µM | GI50 [14] > 100 µM | GI50 [15] 1.35 µM | GI50 [16] 1.41 µM | GI50 [17] > 100 µM | GI50 [18] 10.8 µM | GI50 [19] > 100 µM | GI50 [21] 1.32 µM | GI50 [22] 0.743 µM | GI50 [23] 0.55 µM | GI50 [25] 0.752 µM | GI50 [27] 0.99 µM | GI50 [28] 42.6 µM | GI50 [29] 10.9 µM | GI50 [30] 0.869 µM | GI50 [31] 0.559 µM | GI50 [32] 2.38 µM | GI50 [33] 10.9 µM | GI50 [34] 7.54 µM | GI50 [35] 3.23 µM | GI50 [36] > 100 µM | GI50 [38] 2.74 µM | GI50 [41] 0.591 µM | GI50 [42] 2.86 µM | GI50 [43] 4.49 µM | GI50 [44] 2.64 µM | GI50 [45] 1.39 µM | GI50 [48] 0.682 µM
> 65.1 µM: TGI [16]
2.9 µM: TGI [25]
> 29.4 µM: TGI [49]
> 100 µM: TGI [1] | TGI [3] | TGI [5] | TGI [7] | TGI [8] | TGI [11] | TGI [12] | TGI [13] | TGI [14] | TGI [15] | TGI [17] | TGI [19] | TGI [22] | TGI [27] | TGI [28] | TGI [29] | TGI [31] | TGI [34] | TGI [36] | TGI [38] | TGI [40] | TGI [42] | TGI [43] | TGI [44] | TGI [45]
> 82.5 µM: TGI [35]
> 27.8 µM: TGI [6]
0.305 µM: TGI [2]
13.3 µM: TGI [48]
> 28.5 µM: TGI [10]
10.9 µM: TGI [9]
> 74.8 µM: TGI [18]
0.446 µM: TGI [47]

From PubChem BioAssay (NCI)
